# Test results from ChEMBL document CHEMBL4052720, “Activity cliff for 7-substituted pyrrolo-pyrimidine inhibitors of HCK explained in terms of predicted basicity of the amine nitrogen” (Bioorg Med Chem, 2017).
# Key:
# [1] = target: T1, Tyrosine-protein kinase HCK (Homo sapiens, UniProt P08631); assay: Inhibition of HCK (75 to 526 residues) (unknown origin) expressed in Sf9 insect cells after 120 mins
# [2] = target: T1, Tyrosine-protein kinase HCK; assay: biochemical
# T1 sequence (P08631 whole entry, the tested form may be a part): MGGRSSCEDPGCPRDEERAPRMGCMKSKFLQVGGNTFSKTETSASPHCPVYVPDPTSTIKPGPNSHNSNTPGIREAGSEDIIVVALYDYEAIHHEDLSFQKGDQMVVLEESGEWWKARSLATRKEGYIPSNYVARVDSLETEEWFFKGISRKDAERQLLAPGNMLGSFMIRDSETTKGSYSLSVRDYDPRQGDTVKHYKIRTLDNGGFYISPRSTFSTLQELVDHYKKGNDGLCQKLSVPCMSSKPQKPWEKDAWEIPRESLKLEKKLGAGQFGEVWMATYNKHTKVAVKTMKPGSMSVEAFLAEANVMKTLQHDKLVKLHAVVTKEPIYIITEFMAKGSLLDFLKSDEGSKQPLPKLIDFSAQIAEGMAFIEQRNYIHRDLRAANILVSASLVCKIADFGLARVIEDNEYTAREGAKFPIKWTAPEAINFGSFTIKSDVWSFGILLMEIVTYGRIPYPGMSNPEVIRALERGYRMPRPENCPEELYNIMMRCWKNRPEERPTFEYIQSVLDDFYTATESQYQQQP
SMILES,IC50 ([1]; read-out: IC50),IC50 ([1]; read-out: pIC50 (converted)),IC50 [2]
CC(C)C[C@H](N[C@H]1CC[C@H](n2cc(-c3ccc(Oc4ccccc4)cc3)c3c(N)ncnc32)CC1)C(N)=O,210 nM,,
CCOC(=O)[C@H](CC(C)C)N[C@H]1CC[C@H](n2cc(-c3ccc(Oc4ccccc4)cc3)c3c(N)ncnc32)CC1,1320 nM,,
CC(C)C[C@H](N[C@H]1CC[C@H](n2cc(-c3ccc(Oc4ccccc4)cc3)c3c(N)ncnc32)CC1)C(=O)O,11 nM,,
CN1CCN([C@H]2CC[C@H](n3cc(-c4ccc(Oc5ccccc5)cc4)c4c(N)ncnc43)CC2)CC1,,0.427 nM,0.43 nM

# The remaining molecules from weak to strong by IC50 ([1]; read-out: IC50), led by results:
IC50 ([1]; read-out: IC50),SMILES,IC50 ([1]; read-out: pIC50 (converted)),IC50 [2]
686 nM,CC(C)C[C@H](N[C@H]1CC[C@H](n2cc(-c3ccc(Oc4ccccc4)cc3)c3c(N)ncnc32)CC1)C(=O)N(C)C,,
111 nM,CNC(=O)[C@H](CC(C)C)N[C@H]1CC[C@H](n2cc(-c3ccc(Oc4ccccc4)cc3)c3c(N)ncnc32)CC1,,
